≈ marks a conversion by molar mass, not a printed value. Values belong to the compound of their own block, whether it stands above or below them. Peptide text beside a SMILES is read from it.
Assays:
[1] = physchem; format: physicochemical
Method: Solubility of neat (i.e., not milled) CSP7 ammonium counterion form (Table 35) was performed by adding excess amount of peptide powder into 3 mL different pH buffers (Table 36) and mixing on orbital shaker at 100 rpm for 24 hours at room temperature. The solubility and freeze-thaw samples were filtered through a 0.45 μm membrane prior to being assayed by performing High Performance Liquid Chromatography (HPLC, Thermo Fisher Scientific, Fair Lawn, N.J.). Briefly, samples were analyzed using Dionex 3000 HPLC system equipped with a Waters® reversed phase C18 column 2.5 μm, 150 mm×4.60 mm. The HPLC column was heated to 60° C. for testing, and the peptide was detected at a wavelength of 215 nm and a 1 mL/min flow rate. The two mobile phases were A (0.1% acetic acid in water) and B (0.1% acetic acid in acetonitrile). The injection volume was 20 μL and the standard curve was plotted from 0.01-1 mg/ml.

[2] = Stability study of milled CSP7 (ammonium counterion): geometric particle size distribution (Sympatec HELOS, RODOS); format: physicochemical; settings: not stored (Unprocessed / Initial)
Method: (§1) Stability study for milled CSP7 (ammonium counterion) from Lot #UTA181028. The stability of milled CSP7 powder was investigated under different storage conditions for a period of up to 6 months. Milled CSP7 peptide is packaged as two forms, bulk milled powder and encapsulated milled powder. For storage as bulk milled powder, 0.21-0.24 g peptide is filled in 20 mL scintillation vials (Kimble®, DWK Life Sciences, Millville, N.J., US) and stored within a heat-sealed foil pouch (Impak Corp, Los Angeles, Calif., US) containing two bags of 1 g silica gel desiccant (Tyvek®, Sorbco Packaging LLC, Belen, N. Mex., US) in each pouch. Milled peptide powder is also encapsulated in size 3 HPMC capsules (Capsugel, Morristown, N.J., US) in a weight of about 11±5% mg, and 22-26 capsules are then packaged in HDPE bottles (Drug Plastic, Boyertown, Pa., US), followed by sealing the HDPE bottle within a foil pouch (without desiccant). Packages are stored in stability chambers at the following storage conditions: −20° C., 25° C./60% RH, and 40° C./75% RH. Samples are removed for testing at 1, 3, and 6 months (Table 38). For tests except the aerodynamic particle size distribution, encapsulated powder was removed from the capsule and mixed in a glass vial by rotating the vial.
Geometric particle size distribution. GPSD of CSP7 powder was analyzed before and after milling using a Sympatec HELOS laser diffraction instrument (Sympatec GmbH, Germany) equipped with RODOS dispersion. Measurements are taken every 10 ms following powder dispersion at 3 bar. Measurements that are between 5 and 25% optical density were averaged to determine particle size distribution. The particle sizes by volume are reported at percentiles of 10, 50, and 90 (e.g., Dv 10, Dv 50, and Dv 90), respectively, as well as the percentages of particles falling into 1-5 μm size range. The results are shown in 41.

[3] = Stability study of milled CSP7 (ammonium counterion): aerodynamic particle size distribution by NGI; format: physicochemical; settings: Lot#UTA181028; Unprocessed
Method: Determination of aerodynamic particle size distribution of milled CSP7 bulk powder. Around 3.5 mg of milled CSP7 powder was manually filled into size 3 HPMC capsules (Capsugel, Peapack, N.J.). CSP7 capsules were then aerosolized using a RS01 Monodose Dry Powder Inhaler (high resistance) and aerodynamic particle size distribution was measured by a Next Generation Impactor (NGI, MSP Corp., Shoreview, Minn.). Aerosols were produced over 4 s at an air flow rate of 60 L/min for the inhaler to achieve an inhalation volume of 4 L and 4 kPa pressure drop across the device. Before each run, NGI collection surfaces were coated with 5% (v/v) polysorbate 20 in methanol. One capsule was shot for each run and each sample was ran in triplicate repetitions (three capsules). After aerosolization, all collection surfaces were rinsed with specific volumes of 20 mM Tris buffer (pH 10.3) to collect the drug. Powders deposited in the capsule, device, adaptor, throat, pre-separator, and stages 1-MOC were extracted respectively.
For each test, delivered dose is defined as the mass of CSP7 that entered the NGI. Geometric standard deviation (GSD), mass median aerodynamic diameter (MMAD) and fine particle fraction % (FPF %) are calculated and analyzed with Copley Inhaler Testing Data Analysis Software (CITDAS, Copley Scientific, Nottingham UK), based on the doses deposited on stages 1-MOC of NGI. The FPF is defined as the mass fraction of particles less than 5.0 μm with the delivered dose.
as §1
Aerodynamic particle size distribution: The aerodynamic particle size distribution was evaluated by performing NGI as described in Example 1, except that the powder weight in the tested capsule was 11±5% mg and pre-separator was removed in the assembly of the NGI in stability study.

[4] = Geometric particle size by Sympatec laser diffraction, wet dispersion; format: physicochemical
Method: The particle sizes were next determined by Sympatec laser diffraction by a wet dispersion method. CSP7 was dissolved in ethanol +0.05% Tween 80 as dispersion medium and sonicated 10 min.

[5] = test system: Bleomycin Induced Lung Fibrosis; test: Bleomycin induced lung fibrosis in mice, Ashcroft score; format: in vivo; settings: dry powder inhalation after bleomycin induction, vs bleomycin only
Method: Preparation and lysis of lung tissues. Female mice, ages 6-8 weeks are ordered from Jackson Laboratories, stock: 000664 C57BL/6J are cared for and housed according to IACUC guidelines. The following week, mice are weighed, anesthetized with an IP injection of 80 mg/kg Ketamine & 6 mg/kg Xylazine (approx. 115 ul/mouse) and subjected to a single intratracheal installation of bleomycin. Briefly, a 26G plastic catheter is inserted into the trachea and mice receive, via pipette, 2×20 ul installations (spaced 30 s apart to allow clearance from the airways) of 0.8 U/kg bleomycin (Biotang, Cat #RB003). Controls receive the same volume of saline only. Weight is tracked (approximately 10% weight loss occurs in injured animals) and animals are subjected to a dry powder inhalation protocol (CH technologies) daily for one week. […] Images were captured with Aperio AT2 high volume, digital whole slide scanner and lungs were scored for fibrotic injury according to modified Ashcroft scoring protocol (Hubner et al., 2008, incorporated herein by reference). […] The colormetric assay was read on a microplate reader (FilterMax F5, Molecular Devices, 580 nm). […]
Lung tissues were homogenized and collagen content was analyzed using the Quickzyme collagen assay (FIG. 30). […]

[6] = pH-solubility of polypeptide variants; format: physicochemical
Method: Solubility study of variants was performed by adding variants powders into solvent in concentration of 5 mg/ml and then vortexing for 3 min. Observe the appearance of solutions in 5 min. Add more powder (˜5 mg/ml each time) and repeat vortex and observe until precipitation or gelation occurs.

solubility thermodynamic at 24 h ([1]; pH 3, aqueous buffer): 170 µg/mL | solubility thermodynamic at 24 h ([1]; pH 4, aqueous buffer): 70 µg/mL | solubility thermodynamic at 24 h ([1]; pH 5, aqueous buffer): 50 µg/mL | solubility thermodynamic at 24 h ([1]; pH 6, aqueous buffer): 70 µg/mL | solubility thermodynamic at 24 h ([1]; pH 7, aqueous buffer): 100 µg/mL | solubility thermodynamic at 24 h ([1]; pH 8, aqueous buffer): 380 µg/mL | solubility thermodynamic at 24 h ([1]; pH 9, aqueous buffer): 2300 µg/mL | solubility thermodynamic at 24 h ([1]; pH 10, aqueous buffer): 7870 µg/mL | solubility thermodynamic at 24 h ([1]; pH 11, aqueous buffer): 14400 µg/mL | % 1-5 μm [2]: 47.0 ± 0.9% | Dv 10 [2]: 1.2 ± 0 μm | Dv 50 [2]: 4.5 ± 0.1 μm | Dv 90 [2]: 15.7 ± 0.8 μm | EF % [3]: 92.8% | FPD [3]: 4.2 mg | FPF % [3]: 48.4% | GSD [3]: 4.67 | MMAD [3]: 3.09 μm
SMILES: CC(C)[C@H](NC(=O)[C@@H](NC(=O)[C@H](Cc1ccccc1)NC(=O)[C@@H](NC(=O)[C@@H](NC(=O)[C@@H](N)Cc1ccccc1)[C@@H](C)O)[C@@H](C)O)[C@@H](C)O)C(=O)N[C@H](C(=O)O)[C@@H](C)O [CSP7 (ammonium counterion), FTTFTVT] (H-FTTFTVT-OH; N-terminus and C-terminus assumed)

Dv 50 [4]: 29.0±0.8 μm | solubility thermodynamic at 3 min ([6]; pH 4.5): 150 µg/mL (≈ 184 µM) | solubility thermodynamic at 3 min ([6]; pH 5.5): 160 µg/mL (≈ 196 µM) | solubility thermodynamic at 3 min ([6]; pH 6.5): 160 µg/mL (≈ 196 µM) | solubility thermodynamic at 3 min ([6]; pH 7.5): 310 µg/mL (≈ 380 µM) | solubility thermodynamic at 3 min ([6]; pH 8.5): 1430 µg/mL (≈ 1750 µM)
SMILES: CC(C)[C@H](NC(=O)[C@@H](NC(=O)[C@H](Cc1ccccc1)NC(=O)[C@@H](NC(=O)[C@@H](NC(=O)[C@@H](N)Cc1ccccc1)[C@@H](C)O)[C@@H](C)O)[C@@H](C)O)C(=O)N[C@H](C(=O)O)[C@@H](C)O [CSP7, FTTFTVT] (H-FTTFTVT-OH; N-terminus and C-terminus assumed)
Ashcroft score [5]: lower
